Measurements reported in patent US6465509B2, “Pyrones as inhibitors of cyclooxygenase-2” (Merck Frosst Canada & Co., priority 2000, dated 2002).

Key:
COX-1 [1] = target: T1, COX-1 (Homo sapiens, UniProt P23219); experiment: Human whole blood assay, COX-1 (clotting-induced TxB2 production); type: cell-based; design: endogenous in cells; host or cells: platelets in fresh human whole blood without anticoagulant; conditions: clotting-induced TxB2, 1 hour at 37° C., read-out: COX-1 (IC50 μM) HWB
Protocol: Human whole blood provides a protein and cell-rich milieu appropriate for the study of biochemical efficacy of anti-inflammatory compounds such as selective COX-2 inhibitors. […] This is consistent with the observation that COX-2 inhibitors have no effect on PGE2 production in normal blood. These inhibitors are active only after incubation of human whole blood with LPS, which induces COX-2. This assay can be used to evaluate the inhibitory effect of selective COX-2 inhibitors on PGE2 production. As well, platelets in whole blood contain a large amount of the COX-1 enzyme. Immediately following blood clotting, platelets are activated through a thrombin-mediated mechanism. This reaction results in the production of thromboxane B2 (TxB2) via activation of COX-1. Thus, the effect of test compounds on TxB2 levels following blood clotting can be examined and used as an index for COX-1 activity. Therefore, the degree of selectivity by the test compound can be determined by measuring the levels of PGE2 after LPS induction (COX-2) and TxB2 following blood clotting (COX-1) in the same assay.
B. COX-1 (Clotting-induced TxB2 production)
Fresh blood is collected into vacutainers containing no anticoagulants. Aliquots of 500 μL are immediately transferred to siliconized microcentrifuge tubes preloaded with 2 μL of either DMSO or a test compound at final concentrations varying from 10 nM to 30 μM. The tubes are vortexed and incubated at 37° C. for 1 hour to allow blood to clot. At the end of incubation, serum is obtained by centrifugation (12,000×g for 5 min.). A 100 μL aliquot of serum is mixed with 400 μL of methanol for protein precipitation. The supernatant is obtained and is assayed for TxB2 using a enzyme immunoassay kit (Cayman, #519031) according to the manufacturer's instruction.

COX-1 [2] = target: T1, COX-1; experiment: Assay of COX-1 activity from U937 cell microsomes; type: biochemical; design: endogenous in cells; host or cells: U937 cells, 100,000 x g microsomal pellet; conditions: PGE2, read-out: COX-1 (IC50 μM) U-937
Protocol: Assay of COX-1 Activity from U937 cell microsomes
U937 cells are pelleted by centrifugation at 500×g for 5 min and washed once with phosphate-buffered saline and repelleted. Cells are resuspended in homogenization buffer consisting of 0.1M Tris-HCl, pH 7.4, 10 mM EDTA, 2 μg/ml leupeptin, 2 μg/ml soybean trypsin inhibitor, 2 μg/ml aprotinin and 1 mM phenyl methyl sulfonyl fluoride. The cell suspension is sonicated 4 times for 10 sec and is centrifuged at 10,000×g for 10 min at 4° C. The supernatant is centrifuged at 100,000×g for 1 hr at 4° C. The 100,000×g microsomal pellet is resuspended in 0.1M Tris-HCl, pH 7.4, 10 mM EDTA to approximately 7 mg protein/ml and stored at −80° C.
Microsomal preparations are thawed immediately prior to use, subjected to a brief sonication, and then diluted to a protein concentration of 125 μg/ml in 0.1 M Tris-HCl buffer, pH 7.4 containing 10 mM EDTA, 0.5 mM phenol, 1 mM reduced glutathione and 1 μM hematin. Assays are performed in duplicate in a final volume of 250 μl. Initially, 5 μl of DMSO vehicle or drug in DMSO are added to 20 μl of 0.1M Tris-HCl buffer, pH 7.4 containing 10 mM EDTA in wells of a 96-deepwell polypropylene titre plate. 200 μl of the microsomal preparation are then added and pre-incubated for 15 min at room temperature before addition of 25 μl of […] arachidonic acid in 0.1M Tris-HCl and 10 mM EDTA, pH 7.4. Samples are incubated for 40 min at room temperature and the reaction is stopped by the addition of 25 μl of 1N HCl. Samples are neutralized with 25 μl of 1N NaOH prior to quantitation of PGE2 content by radioimmunoassay (Dupont-NEN or Amersham assay kits). Cyclooxygenase activity is defined as the difference between PGE2 levels in samples incubated in the presence of arachidonic acid and ethanol vehicle.
Compounds of the present invention are inhibitors of cyclooxygenase-2 and are thereby useful in the treatment of cyclooxygenase-2 mediated diseases as enumerated above. The activities of the compounds against cyclooxygenase may be seen in the representative results shown below. In the assay, inhibition is determined by measuring the amount of prostaglandin E2 (PGE2) synthesized in the presence of arachidonic acid, cyclooxygenase-1 or cyclooxygenase-2 and a putative inhibitor. The IC50 values represent the concentration of putative inhibitor required to return PGE2 synthesis to 50% of that obtained as compared to the uninhibited control.

T1 sequence (P23219 24-599): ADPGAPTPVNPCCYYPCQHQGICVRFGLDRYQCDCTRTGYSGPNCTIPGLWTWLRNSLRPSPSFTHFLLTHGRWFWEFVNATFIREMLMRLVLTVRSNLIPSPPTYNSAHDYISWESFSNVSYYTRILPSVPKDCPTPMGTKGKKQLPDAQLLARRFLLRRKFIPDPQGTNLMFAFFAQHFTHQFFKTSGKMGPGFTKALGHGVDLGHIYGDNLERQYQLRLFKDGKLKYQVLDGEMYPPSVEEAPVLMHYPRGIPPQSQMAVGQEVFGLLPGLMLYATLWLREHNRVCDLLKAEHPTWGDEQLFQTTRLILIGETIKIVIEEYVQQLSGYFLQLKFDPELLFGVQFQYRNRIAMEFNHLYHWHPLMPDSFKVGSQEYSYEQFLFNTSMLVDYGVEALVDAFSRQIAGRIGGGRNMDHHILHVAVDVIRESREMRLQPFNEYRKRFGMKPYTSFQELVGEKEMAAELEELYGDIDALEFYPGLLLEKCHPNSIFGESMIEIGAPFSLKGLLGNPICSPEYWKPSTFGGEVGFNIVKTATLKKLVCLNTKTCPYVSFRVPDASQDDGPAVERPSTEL

| SMILES | IC50 (COX-1 [1]) [µM] | IC50 (COX-1 [2]) [µM] |
| --- | --- | --- |
| CS(=O)(=O)c1ccc(-c2ccoc(=O)c2-c2ccccc2)cc1 [Example 1, 4-(4-Methylsulfonyl)phenyl-3-phenyl-pyran-2-one] | 13 | > 10 |
| Cc1cc(-c2ccc(S(C)(=O)=O)cc2)c(-c2ccccc2)c(=O)o1 [Example 4, 6-Methyl-4-(4-methylsulfonyl)phenyl-3-phenyl-pyran-2-one] | 6.3 | 1 |
| CS(=O)(=O)c1ccc(-c2cc(CF)oc(=O)c2-c2ccccc2)cc1 [Example 6, 6-Fluoromethyl-4-(4-methylsulfonyl)phenyl-3-phenyl-pyran-2-one] | – | ~1 |
| Cc1cc(-c2ccc(S(C)(=O)=O)cc2)c(Oc2ccccc2)c(=O)o1 [Example 8, 6-Methyl-4-(4-(methylsulfonyl)phenyl)-3-phenoxy-pyran-2-one] | 13 | 1 to 3 |
| Cc1cc(-c2ccc(S(C)(=O)=O)cc2)c(-c2cccnc2)c(=O)o1 [Example 9] | 16 | 0.3 to 1 |

Results, then the compound that gave them:

| IC50 (COX-1 [1]) [µM] | IC50 (COX-1 [2]) [µM] | SMILES |
| --- | --- | --- |
| 2 | 0.3 to 1 | Cc1cc(-c2ccc(S(C)(=O)=O)cc2)c(-c2ccc(F)cc2)c(=O)o1 [Example 2, 3-(4-Fluorophenyl)-6-methyl-4-(4-methylsulfonyl)phenyl-pyran-2-one] |
| 6.9 | 3 to 10 | Cc1cc(-c2ccc(S(C)(=O)=O)cc2)c(-c2cccc(F)c2)c(=O)o1 [Example 3, 3-(3-Fluorophenyl)-6-methyl-4-(4-methylsulfonyl)phenyl-pyran-2-one] |
| – | 0.3 to 1 | CS(=O)(=O)c1ccc(-c2cc(C(F)F)oc(=O)c2-c2ccccc2)cc1 [Example 5, 6-Difluoromethyl-4-(4-methylsulfonyl)phenyl-3-phenyl-pyran-2-one] |
| 16 | 1 to 3 | Cc1cc(-c2ccc(S(C)(=O)=O)cc2)c(Sc2ccccc2)c(=O)o1 [Example 7, 6-Methyl-4-(4-(methylsulfonyl)phenyl)-3-phenylthio-pyran-2-one] |
| – | > 10 | Cc1cc(-c2ccc(S(C)(=O)=O)cc2)c(SC(C)C)c(=O)o1 [Example 10, 3-Isopropylthio-6-methyl-4-(4-(methylsulfonyl)phenyl)-pyran-2-one] |
| – | 14 | CS(=O)(=O)c1ccc(-c2cc(C(F)(F)F)oc(=O)c2Sc2ccccc2)cc1 [Example 11, 4-(4-(Methylsulfonyl)phenyl)-3-phenylthio-6-trifluoromethyl-pyran-2-one] |
| – | >33 | CC(C)Sc1c(-c2ccc(S(C)(=O)=O)cc2)cc(C(F)(F)F)oc1=O [Example 12, 3-Isopropylthio-4-(4-(methylsulfonyl)phenyl)-6-trifluoromethyl-pyran-2-one] |
| – | > 10 | Cc1cc(-c2ccc(S(C)(=O)=O)cc2)c(CCC(C)(C)O)c(=O)o1 [Example 14, 3-(3-Hydroxy-3-methylbutyl)-6-methyl-4-(4-methylsulfonyl)phenyl-pyran-2-one] |
